Series [1] is described as follows: Plasma clearance was estimated from the AUC after 5 mg/kg intravenous dosing in rats. The settings on record: rat. The series is classed as ADME, organism-based. Set-up: dose 5 mg/kg, route intravenous.
Series [2] deals with T1, Cysteinyl leukotriene receptor 1 (Cavia porcellus, UniProt Q2NNR5).
T1 sequence (Q2NNR5 whole entry): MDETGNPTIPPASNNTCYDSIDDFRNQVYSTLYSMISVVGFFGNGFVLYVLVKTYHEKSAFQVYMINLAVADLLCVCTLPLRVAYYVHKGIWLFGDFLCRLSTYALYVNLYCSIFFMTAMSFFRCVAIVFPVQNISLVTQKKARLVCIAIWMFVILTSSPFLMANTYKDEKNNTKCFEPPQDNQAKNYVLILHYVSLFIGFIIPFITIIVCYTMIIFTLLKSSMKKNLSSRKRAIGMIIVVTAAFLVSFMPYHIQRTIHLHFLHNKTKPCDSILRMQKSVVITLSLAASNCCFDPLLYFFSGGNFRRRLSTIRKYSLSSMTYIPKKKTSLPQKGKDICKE
Put plainly: Inhibitory concentration against [3H]Leukotriene D4 binding to guinea-pig lung membranes was determined; experiment 1. The series is classed as tissue-based, Membrane.

Series [3] deals with T1, Cysteinyl leukotriene receptor 1. The experiment in a line: Inhibitory concentration against [3H]Leukotriene D4 binding to guinea-pig lung membranes was determined; experiment 2. The series is classed as tissue-based, Membrane.
Series [4] has the same target. The experiment in a line: Inhibitory concentration against [3H]Leukotriene D4 binding to guinea-pig lung membranes was determined. The class given is tissue-based, Membrane.
For series [5] the target is unchanged. Put plainly: Inhibition of Leukotriene D4 induced contraction of guinea-pig trachea was determined. The class given is functional, tissue-based. Conditions: read-out: pA2 (converted).
In series [6] the test system is Mus musculus. Put plainly: The compound was tested for average percentage increase of fatty acyl Co-A oxidase activity after 4 days of dosing in mice at 400 mg/kg peroral administration. The settings on record: route oral. The class given is functional.
In series [7] the test system is Rattus norvegicus. Put plainly: Percent inhibition of Antigen induced dyspnea in hyperactive rats by the compound at 0.5 mg/kg concentration was determined. The series is classed as functional.
The test system of series [8] is Mus musculus. The experiment in a line: The compound was tested for average percentage increase of fatty acyl Co-A oxidase activity after 4 days of dosing mice at 400 mg/kg peroral administration. The series is classed as functional. Conditions: route oral.
For series [9], the system named is Cavia porcellus. Put plainly: Effective dose in guinea pig on intravenous administration. The series is classed as functional.
The subject of series [10] is Monkey. Put plainly: Inhibition of Leukotriene D4 induced bronchoconstriction in squirrel monkey, 4 hr pretreatment at 0.1 mg/kg peroral administration. The series is classed as functional. The settings on record: in Primates, route oral.
Series [11] deals with Mus musculus. Put plainly: The compound was tested for average percentage increase of fatty acyl Co-A oxidase activity after 4 days of dosing in mice at 100 mg/kg peroral administration. The settings on record: route oral. The class given is functional.
Series [12] addresses T1, Cysteinyl leukotriene receptor 1. The experiment in a line: Inhibitory concentration against [3H]Leukotriene D4 binding to guinea-pig lung membranes was determined (Experiment 2). The series is classed as tissue-based, Membrane.
Series [13] has the same target. The experiment in a line: Inhibitory concentration against [3H]Leukotriene D4 binding to guinea-pig lung membranes was determined (Experiment 1). The class given is tissue-based, Membrane.
Series [14] is described as follows: The apparent total plasma clearance in monkey. The series is classed as ADME, organism-based. Conditions: cercopithecidae.
The test system of series [15] is Rattus norvegicus. The experiment in a line: Percent inhibition of Antigen induced dyspnea in hyperractive rats by the compound at 0.5 mg/kg concentration was determined after peroral administration, 2 hr pretreatment. The series is classed as functional. Conditions: route oral.
The subject of series [16] is Monkey. Put plainly: Inhibition of Leukotriene D4 induced bronchoconstriction in squirrel monkey, 4 hr pretreatment, 0.1 mg/kg peroral administration. The series is classed as functional. Conditions: in Primates, route oral.

As a reminder, the IC50 is the concentration that gives 50% inhibition. Take `CCC(CSC(CCc1ccccc1-c1nn[nH]n1)c1cccc(OCc2ccc3ccc(Cl)cc3n2)c1)C(=O)[O-].[Na+]` (stereo not drawn): the clearance in series [1] was 3.66 L/h/kg. For the same compound, the concentration for half-maximal inhibition (IC50) worked out at 0.8 nM in [2] and 0.5 nM in series [3].

Regarding `CS(=O)(=O)Nc1ccccc1CCC(SCCC(=O)[O-])c1cccc(OCc2ccc3ccc(Cl)cc3n2)c1.[Na+]` (stereo not drawn), in series [1], the clearance was 7.86 L/h/kg. Further, the values for the IC50 in series [2] and in series [3] were 0.56 nM and 0.6 nM, respectively.

For `CCC(CSC(CCc1ccccc1C(=O)NS(=O)(=O)c1ccccc1C)c1cccc(OCc2ccc3ccc(Cl)cc3n2)c1)C(=O)[O-].[Na+]` (stereo not drawn), the clearance in series [1] is 0.9 L/h/kg. The IC50 is 1.4 nM in series [2] and 6.5 nM in series [3].

Compound `CC(CCC(SCCC(=O)O)c1cccc(/C=C/c2ccc3ccc(Cl)cc3n2)c1)CC(=O)N(C)C` (stereo not drawn) yielded an IC50 in series [4] of 1.3 nM.

By inhibition in vivo is commonly meant the relative decrease from the control value, in per cent. Turning to `C[C@H](CS[C@H](CCc1ccccc1C(C)(C)O)c1cccc(OCc2ccc3ccc(Cl)cc3n2)c1)C(=O)[O-].[Na+]`, the Kb in series [5] was 0.794 nM. Moreover, the IC50 in series [2] came out at 2 nM; in [3] it was 4 nM. Also, the “FACO Activity” value in series [6] is reported as 128%. Besides, the inhibition in vivo at 0.5 mg/kg in series [7] is 62%.

With `CCC(CSC(CCc1ccccc1C(=O)O)c1cccc(OCc2ccc3ccc(Cl)cc3n2)c1)C(=O)[O-].[Na+]` (stereo not drawn), in series [1], the clearance is 0.528 L/h/kg. Besides, the results for the IC50 in [2] and in series [3] were 2 nM and 1 nM, respectively.

As to `CC(CSC(CCc1ccccc1C(C)(C)O)c1cccc(OCc2ccc3ccc(Cl)cc3n2)c1)C(=O)[O-].[Na+]` (stereo not drawn), the clearance in series [1] is 0.72 L/h/kg. The IC50 is 0.5 nM in series [2] and 0.85 nM in series [3].

`CC(CSC(CCc1ccccc1C(=O)N(C)C)c1cccc(OCc2ccc3ccc(Cl)cc3n2)c1)C(=O)O` (stereo not drawn): the concentration for half-maximal inhibition (IC50) in [4] was 0.52 nM.

For `CCC(CSC(CCc1ccccc1S(C)(=O)=O)c1cccc(OCc2ccc3ccc(Cl)cc3n2)c1)C(=O)[O-].[Na+]` (stereo not drawn), the clearance in series [1] was 2.1 L/h/kg. Moreover, the IC50 is 0.6 nM in series [2] and 1 nM in [3].

Consider `O=C([O-])CCSC(CCc1ccccc1)c1cccc(OCc2ccc3ccc(Cl)cc3n2)c1.[Na+]` (stereo not drawn), for which the clearance in series [1] was 0.174 L/h/kg. Also, in [4], the 50% inhibitory concentration (IC50) was 6.5 nM.

For the compound `O=C([O-])CCSC(CCc1ccccc1C(=O)N1CCCCC1)c1cccc(OCc2ccc3ccc(Cl)cc3n2)c1.[Na+]` (stereo not drawn), the clearance in [1] is 3.3 L/h/kg. In [4], this compound had an IC50 of 0.6 nM.

With `CC(CSC(CCc1ccccc1[N+](=O)[O-])c1cccc(OCc2ccc3ccc(Cl)cc3n2)c1)C(=O)[O-].[Na+]` (stereo not drawn), the clearance in [1] is 0.72 L/h/kg. Also, the values for the IC50 in series [2] and in series [3] were 0.4 nM and 0.49 nM, respectively.

Take `CN(C)C(=O)c1ccccc1CCC(SCCC(=O)[O-])c1cccc(OCc2ccc3ccc(Cl)cc3n2)c1.[Na+]` (stereo not drawn): the clearance in series [1] was 3.84 L/h/kg. This compound yielded an IC50 in series [4] of 0.95 nM.

With `CCC(CSC(CCc1ccccc1-c1nnnn1C)c1cccc(OCc2ccc3ccc(Cl)cc3n2)c1)C(=O)[O-].[Na+]` (stereo not drawn), the clearance in series [1] was 1.08 L/h/kg. For the same compound, the concentration for half-maximal inhibition (IC50) in series [4] amounted to 0.4 nM.

`CN(C)C(=O)CCSC(SCCC(=O)O)c1cccc(SCc2ccc3ccc(Cl)cc3n2)c1` (stereo not drawn) yielded an IC50 in series [4] of 75 nM.

`CCC(CSC(CCc1ccccc1C#N)c1cccc(CCc2ccc3ccc(Cl)cc3n2)c1)C(=O)[O-].[Na+]` (stereo not drawn): the clearance in [1] is 0.78 L/h/kg. In series [4], the IC50 came out at 1 nM.

For the compound `CC(CSC(CCc1ccccc1C(=O)N(C)CO)c1cccc(OCc2ccc3ccc(Cl)cc3n2)c1)C(=O)O` (stereo not drawn), the concentration for half-maximal inhibition (IC50) in [4] came out at 3.6 nM.

Take `CC(CCC(SCCC(=O)O)c1cccc(OCc2ccc3ccc(Cl)cc3n2)c1)CC(=O)N(C)C` (stereo not drawn): the IC50 in series [4] was 8.6 nM.

For the compound `C[C@H](CS[C@@H](CCc1ccccc1C(C)(C)O)c1cccc(OCc2ccc3ccc(Cl)cc3n2)c1)C(=O)[O-].[Na+]`, the Kb in series [5] was 5.01 nM. The IC50 is 17 nM in series [2] and 20 nM in series [3]. For the same compound, the “FACO Activity” value in series [8] was 10%. Besides, the inhibition in vivo at 0.5 mg/kg in series [7] was found to be 47%.

By ED50 is commonly meant the dose at which the effect has come halfway, by size or by number of responders. As for `CCC[C@H](CS[C@@H](CCc1ccccc1C(C)(C)O)c1cccc(/C=C/c2ccc3ccc(Cl)cc3n2)c1)C(=O)O` [L-695499], the Kb in series [5] is 1.58 nM. It took a dose of 2 µg/kg to reach the 50% effect level in [9] (ED50). In [4], the IC50 came to 0.9 nM. Also, the inhibition in vivo at 0.1 mg/kg in [10] was found to be 72%. In addition, in series [11], the “FACO Activity” value came to 38%.

For the compound `C[C@@H](CS[C@@H](CCc1ccccc1C(C)(C)O)c1cccc(OCc2ccc3ccc(Cl)cc3n2)c1)C(=O)[O-].[Na+]`, in series [5], the Kb is 1.58 nM. In addition, the IC50 came out at 5 nM in [2] and 7 nM in series [3]. For the same compound, the “FACO Activity” value in series [8] was -7%. In [7], the inhibition in vivo at 0.5 mg/kg came out at 46%.

Regarding `CN(C)C(=O)CCSC(SCCC(=O)O)c1cccc(CCc2ccc3ccc(Cl)cc3n2)c1` (stereo not drawn), the IC50 in series [12] was determined as 36 nM; in [13], 26 nM.

As to `CN(C)C(=O)CCSC(CCc1ccccc1C(=O)O)c1cccc(OCc2ccc3ccc(Cl)cc3n2)c1` (stereo not drawn), in [14], the clearance was determined as 0.9 L/h/kg. The IC50 in series [4] was 1.9 nM. For the same compound, the inhibition in vivo at 0.5 mg/kg in series [15] is 54%.

The compound `CN(C)C(=O)CCSC(SCCC(=O)O)c1cccc(OCc2ccc3ccc(Cl)cc3n2)c1` (stereo not drawn) yielded an IC50 in [4] of 14 nM.

On to `CN(C)C(=O)CCS[C@H](SCCC(=O)O)c1cccc(/C=C/c2ccc3ccc(Cl)cc3n2)c1` [MK-571], for which, in series [14], the clearance came to 0.072 L/h/kg. Moreover, the Kb in series [5] is 1.58 nM. The ED50 in series [9] was determined as 2.8 µg/kg. This compound yielded an IC50 in series [4] of 3.9 nM. The inhibition in vivo at 0.1 mg/kg in [16] was determined as 60%. The “FACO Activity” value in series [6] amounted to 62%.

With `CCOC(=O)Nc1ccccc1CCC(SCC(CC)C(=O)[O-])c1cccc(CCc2ccc3ccc(Cl)cc3n2)c1.[Na+]` (stereo not drawn), the clearance in series [1] is 0.528 L/h/kg. For the same compound, the figures for the IC50 in series [2] and in series [3] were 0.5 nM and 0.6 nM, respectively.

As to `C[C@@H](CS[C@H](CCc1ccccc1C(C)(C)O)c1cccc(OCc2ccc3ccc(Cl)cc3n2)c1)C(=O)[O-].[Na+]`, in [5], the Kb was 0.398 nM. The IC50 was determined as 0.2 nM in [2] and 0.3 nM in series [3]. Besides, in series [6], the “FACO Activity” value came to 155%. The inhibition in vivo at 0.5 mg/kg in series [7] was found to be 63%.

In the case of `CCC(CSC(CCc1ccccc1C(N)=O)c1cccc(OCc2ccc3ccc(Cl)cc3n2)c1)C(=O)[O-].[Na+]` (stereo not drawn), the clearance in series [1] is 3.48 L/h/kg. This compound also displayed an IC50 in series [4] of 0.47 nM.

Turning to `O=C([O-])CCSC(CCc1ccccc1-c1nc[nH]n1)c1cccc(OCc2ccc3ccc(Cl)cc3n2)c1.[Na+]` (stereo not drawn), the clearance in series [1] is 3.84 L/h/kg. In addition, in [4], the IC50 was found to be 0.36 nM.

Turning to `CC(CSC(CCc1ccccc1C(C)C)c1cccc(OCc2ccc3ccc(Cl)cc3n2)c1)C(=O)[O-].[Na+]` (stereo not drawn), in series [1], the clearance was 0.132 L/h/kg. This compound registered a 50% inhibitory concentration (IC50) in series [4] of 6.3 nM.

Turning to `NS(=O)(=O)c1ccccc1CCC(SCCC(=O)[O-])c1cccc(OCc2ccc3ccc(Cl)cc3n2)c1.[Na+]` (stereo not drawn), the clearance in [1] was 6.36 L/h/kg. In addition, the half-maximal inhibitory concentration (IC50) in [2] was determined as 0.4 nM; in series [3], 0.6 nM.

The compound `CN(C)C(=O)c1ccccc1CCC(SCCC(=O)O)c1cccc(OCc2ccc3ccc(Cl)cc3n2)c1` (stereo not drawn) had an IC50 in series [4] of 0.95 nM.

In the case of `CCNC(=O)c1ccccc1CCC(SCC(CC)C(=O)[O-])c1cccc(OCc2ccc3ccc(Cl)cc3n2)c1.[Na+]` (stereo not drawn), in [1], the clearance was 6.36 L/h/kg. Besides, the half-maximal inhibitory concentration (IC50) in [4] was found to be 0.45 nM.

The values are drawn from ChEMBL document CHEMBL1126226, “The discovery of a new structural class of potent orally active leukotriene D4 antagonists” (Bioorg Med Chem Lett, 1992).
